Experimental findings from article PMC11371747, “The role of l-leucovorin uptake and metabolism in the modulation of 5-fluorouracil efficacy and antifolate toxicity” (Frontiers in Pharmacology, 2024) are described below.

Where two headings read alike, the source gives them in different places.

In one assay the test system is H460 cells. Nature of the assay: Growth inhibition, SRB assay, H460 (NSCLC). Particulars: for IC50: H460, SRB, read-out: IC50, 72 h drug exposure. The format is cell-based, human. As to the method:
Briefly, cells were seeded in triplicate in 96-well plates at their pre-established optimal density (CHO cells: 2,500 cells/100 μL; WiDr and HT29: 3,500 cells/100 μL; WiDr-LF/LV, LS174T: 5,000 cells/100 μL; CaCo2, CaCo2-LF/LV, H292, H28 and MSTO-211H: 6,000 cells/100 μL; H460, SW948 and SW1398: 7,000 cells/100 μL) and were allowed to attach for ∼ 24 h at 37°C in 5% CO2 and 100% humidified incubator. Thereafter, 100 μL of drug dilution without LV, or with 5 μM l-LV/5 μM d-LV/10 μM dL-LV (or any LV alone) were added. Cells were allowed to grow for 72 h at 37°C in 5% CO2 and 100% humidity. The t = 0 h control plate consisted of cells plated on the same day as the other cells, but after 24 h at 37°C in 5% CO2 and 100% humidity, only 100 μL medium was added and the cells were fixed immediately with 50% trichloroacetic acid (TCA) in milliQ water (25 μL per well) and put at 4°C for at least 1 h. Plates were washed five times with water and dried. Cells were stained with the SRB protein dye (0.4% (w/v) in 1% acetic acid. Excess dye was washed away four times with 1% acetic acid and plates were dried again. 200 μL of Tris (10 mM Tris (hydroxymethyl)-aminomethane in MQ) was added and optical density (OD) was read at 492 nm after mixing 2–3 min on a plate shaker.
In general terms: In SRB staining, fixed cells bind dye roughly in proportion to their protein.

The target of assay [1] is T1, thymidylate synthase (TS) (Homo sapiens, UniProt P04818).
T1 construct: The principle of this assay is the measurement of TS enzymatic activity in intact cells; endogenous in cells; host or cells: colon cancer cell lines (WiDr, WiDr-LF, SW1398, LS174T and others)
The assay can be described thus: TS in situ inhibition assay (TSIA) in colon cancer cells. The format is cell-based. To be noted: WiDr, 4 h, antifolate alone. The source says:
The principle of this assay is the measurement of TS enzymatic activity in intact cells. Intact cells will readily internalize radioactively labelled [5-^3H]-deoxycytidine, which will be rapidly converted by deoxycytidine kinase (dCK) to [5-^3H]-dCMP and subsequently deaminated to [5-^3H]-dUMP, which will then serve as a substrate in the TS catalysed reaction to dTMP and ^3H2O; the quantity of ^3H2O formed over time is a measure of intracellular TS activity. […] This is because dCK has a higher, cell cycle independent activity than thymidine kinase 1, which is a cell cycle dependent enzyme. For this purpose, cancer cells were cultured in six wells plates at 2.5 × 10^5 cells/2 mL/well for 24 h. Thereafter, cells were exposed to drugs with or without the LV formulations at the indicated concentrations for 4 h. 2 h before the end of the incubation period [5-^3H]-2′-deoxycytidine (final concentration 1 µM) was added to the cells. […] In most cell lines we quantified dCK activity and dCK mRNA levels.

T1 sequence (P04818 2-313 limits assumed): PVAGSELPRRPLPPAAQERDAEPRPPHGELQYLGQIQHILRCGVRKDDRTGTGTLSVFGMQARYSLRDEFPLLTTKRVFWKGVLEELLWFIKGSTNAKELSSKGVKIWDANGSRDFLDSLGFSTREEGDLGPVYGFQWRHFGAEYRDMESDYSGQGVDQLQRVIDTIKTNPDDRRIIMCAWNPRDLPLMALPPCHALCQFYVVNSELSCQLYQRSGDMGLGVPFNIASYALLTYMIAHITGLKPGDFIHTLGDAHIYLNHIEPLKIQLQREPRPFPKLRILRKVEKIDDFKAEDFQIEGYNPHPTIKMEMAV

For the molecule `C#CCC(Cc1cnc2nc(N)nc(N)c2n1)c1ccc(C(=O)N[C@@H](CCC(=O)O)C(=O)O)cc1` (stereo partly shown) [PLX, pralatrexate], the IC50 (commonly the point on the concentration scale where inhibition reaches its midpoint) came to 1.45 µM in the assay with H460 cells (antifolate + 5 µM l-LV); 0.0028 ± 0.0001 µM with H460 cells (Homo sapiens, NCI-H460, 72 h, antifolate alone); 0.0177 ± 0.0047 µM in assay [1]. For the same molecule, the “Relative protection by 5 µM l-LV” value in the assay with H460 cells (H460, ratio IC50 antifolate + LV / IC50 antifolate) is on record as 502 ± 21.
